Data on 21 molecules can be found in US20090018150A1, “5-Ht2b Receptor Antagonists” (ASTERAND UK LIMITED, priority 2003, published 2009).

Assay [1] deals with T1, human cloned 5-HT2B receptors (Homo sapiens, UniProt P41595).
T1 construct: expressed in transfected cells; host or cells: CHO-K1
Kind of assay: Human cloned 5-HT2B receptor binding assay. The note with it: [3H]LSD (1 nM) displacement, membranes of CHO-K1 cells expressing cloned 5-HT2B receptor; read-out: 5-HT2B pKi (converted). Here is the method:
The binding affinity of the compounds for human cloned 5-HT2B receptors was determined using the following assay.
CHO-K1 cells expressing cloned 5-HT2B receptor were maintained in Ultra-CHO medium containing 400 μg/ml of G418, 100 U/ml penicillin, 100 μg/ml streptomycin, 2.5 μg/ml fungizone and 1-foetal bovine serum, in 95/5% O2/CO2 at 37° C. The cells were harvested using 0.25% trypsin and were centrifuged at 800 rpm for 8 minutes. The cells were homogenised in 50 mM HEPES buffer containing 1 mM disodium EDTA and 1 mM PMSF at pH 7.4, using a Dounce homogeniser (20 strokes). The homogenate was centrifuged at 2280 rpm (1000 g) and 4° C. for 10 minutes, after which the supernatant was removed by decanting. The pellet was re-homogenised as above, and the resulting supernatant removed and combined with that already obtained. The supernatant solution was then centrifuged at 18300 rpm (40000 g) for 10 minutes at 4° C. using a Sorvall centrifuge. The supernatant was removed, and the pellet was re-suspended in 50 mM buffer at pH 7.4 using a Ultra-turrax T25 Polytron, before centrifugation again at 40000 g as above. This wash procedure was repeated, after which the membrane preparation was stored at a concentration of 1 mg/ml at −80° C. until use.
The membranes were thawed rapidly and diluted in assay buffer containing Tris-HCl (50 mM, pH 7.4), ascorbic acid (0.1°) and calcium chloride (4 mM). The membranes were homogenised to resuspend them, prior to adding 10 or 15 μg of membranes to assay wells containing [^3H]LSD (1 nM), assay buffer (50 mM Tris, 4 mM calcium chloride and 0.1° ascorbic acid) containing pargyline (10 μM), and the test compounds (1×10^−10 to 1×10^−4M). Non specific binding was determined in the presence of 100 μM 5-HT. After 30 minutes incubation at 37° C., the assay mixture was filtered through a combination of GF-C and GF-B filters, pre-soaked in 1% polyethyleneimine, using a Brandel cell harvester, and were washed three times using 50 mM Tris-HCl. Radioactivity retained on the filters was determined by liquid scintillation counting. For each test compound, the concentration that inhibited binding of [^3H]LSD by 50% was determined using curve fitting software (Prism). Kd values (concentration of LSD required to occupy 50% of the receptor binding sites at equilibrium) determined from saturation binding studies were then used to calculate inhibition dissociation constants (Ki) using the following equation: […]
This approach follows that set out in Kenakin, T. P. Pharmacologic analysis of drug-receptor interaction. Raven Press, New York, 2nd Edition.

The target of assay [2] is T2, cloned human 5-HT2A receptor (Homo sapiens, UniProt P28223).
T2 construct: purchased Euroscreen; host or cells: CHO-K1
In words: Human 5-HT2A receptor binding assay. The note with it: [3H]ketanserin (1 nM) displacement, CHO-K1 cell membranes; read-out: 5-HT2A pKi (converted). As for the experimental part: (§1) The binding affinity of ligands for human 5-HT2A and 5-HT2C receptors was determined using the following assay.
Membrane preparations from CHO-K1 cells expressing the cloned human 5-HT2A receptor were obtained (Euroscreen). The membranes were thawed rapidly and diluted in assay buffer containing Tris-HCl (50 mM, pH 7.7). The membranes were resuspended by homogenisation, prior to adding 15 μg of membranes to assay wells containing [3H]ketanserin (1 nM), assay buffer (50 mM Tris at pH 7.4) containing pargyline (10 μM), and test compounds (1×10^−10 to 1×10^−4M). Non specific binding was determined in the presence of 100 μM mianserin. After 15 minutes incubation at 37° C., the assay mixture was filtered through a combination of GF-C and GF-B filters, pre-soaked in 0.05% Brij, using a Brandel cell harvester, and were washed three times using ice cold Tris-HCl buffer (50 mM). Radioactivity retained on the filters was determined by liquid scintillation counting. For each test compound, the concentration that inhibited binding of [^3H]ketanserin by 50% was determined using curve fitting software (Prism). Kd values (concentration of ketanserin required to occupy 50% of the receptor binding sites at equilibrium) determined from saturation binding studies were then used to calculate inhibition dissociation constants (Ki) using the following equation: […]

The target of assay [3] is T3, cloned human 5-HT2C receptor (Homo sapiens, UniProt P28335).
T3 construct: purchased Euroscreen; host or cells: CHO-K1
T3 sequence (P28335 33-458): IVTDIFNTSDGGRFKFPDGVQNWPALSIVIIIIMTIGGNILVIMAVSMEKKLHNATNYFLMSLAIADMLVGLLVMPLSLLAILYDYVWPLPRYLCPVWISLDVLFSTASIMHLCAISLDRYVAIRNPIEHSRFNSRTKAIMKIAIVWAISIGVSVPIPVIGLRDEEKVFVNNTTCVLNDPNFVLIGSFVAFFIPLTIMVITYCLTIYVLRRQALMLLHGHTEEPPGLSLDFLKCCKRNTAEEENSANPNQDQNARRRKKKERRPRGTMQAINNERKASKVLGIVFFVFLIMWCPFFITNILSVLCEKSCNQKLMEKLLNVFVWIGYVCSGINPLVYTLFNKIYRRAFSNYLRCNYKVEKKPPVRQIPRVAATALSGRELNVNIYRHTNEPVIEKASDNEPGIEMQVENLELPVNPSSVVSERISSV
Kind of assay: Human 5-HT2C receptor binding assay. Conditions: [3H]mesulergine (1 nM) displacement, CHO-K1 cell membranes; read-out: 5-HT2C pKi (converted). Here is the method: as §1
Membrane preparations from CHO-K1 cells expressing the cloned human 5-HT2C receptor were obtained (Euroscreen). The membranes were thawed rapidly and diluted in assay buffer containing Tris-HCl (50 mM, pH 7.7), ascorbic acid (0.1%) and pargyline (10 μM). The membranes were resuspended by homogenisation, prior to adding 6 μg of membranes to assay wells containing [^3H]mesulergine (1 nM), assay buffer (50 mM Tris at pH 7.7 and 0.1% ascorbic acid) containing pargyline (10 μM), and test compounds (1×10^−10 to 1×10^−4M). Non specific binding was determined in the presence of 100 μM mianserin. After 30 minutes incubation at 37° C., the assay mixture was filtered through a combination of GF-C and GF-B filters, pre-soaked in 1% bovine serum albumin, using a Brandel cell harvester, and were washed three times using ice cold Tris-HCl buffer (50 mM). Radioactivity retained on the filters was determined by liquid scintillation counting. For each test compound, the concentration that inhibited binding of [^3H]mesulergine by 50% was determined using curve fitting software (Prism). Kd values (concentration of mesulergine required to occupy 50% of the receptor binding sites at equilibrium) determined from saturation binding studies were then used to calculate inhibition dissociation constants (Ki) using the following equation: […]

Where a name gives a salt, the structure may show the parent alone.

T1 sequence (P41595 whole entry): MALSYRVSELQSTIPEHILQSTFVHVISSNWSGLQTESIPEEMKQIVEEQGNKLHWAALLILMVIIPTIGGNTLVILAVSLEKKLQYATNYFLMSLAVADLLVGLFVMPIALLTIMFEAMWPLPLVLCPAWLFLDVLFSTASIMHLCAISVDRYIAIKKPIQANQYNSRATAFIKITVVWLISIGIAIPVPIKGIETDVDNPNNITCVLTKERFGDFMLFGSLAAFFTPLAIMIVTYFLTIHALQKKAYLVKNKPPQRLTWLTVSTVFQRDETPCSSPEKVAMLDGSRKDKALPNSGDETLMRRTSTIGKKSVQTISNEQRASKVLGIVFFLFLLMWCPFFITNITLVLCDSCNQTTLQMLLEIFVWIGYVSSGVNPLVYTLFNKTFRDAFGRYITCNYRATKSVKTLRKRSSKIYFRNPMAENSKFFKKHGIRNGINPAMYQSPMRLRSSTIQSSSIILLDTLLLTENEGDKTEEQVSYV
T2 sequence (P28223 whole entry): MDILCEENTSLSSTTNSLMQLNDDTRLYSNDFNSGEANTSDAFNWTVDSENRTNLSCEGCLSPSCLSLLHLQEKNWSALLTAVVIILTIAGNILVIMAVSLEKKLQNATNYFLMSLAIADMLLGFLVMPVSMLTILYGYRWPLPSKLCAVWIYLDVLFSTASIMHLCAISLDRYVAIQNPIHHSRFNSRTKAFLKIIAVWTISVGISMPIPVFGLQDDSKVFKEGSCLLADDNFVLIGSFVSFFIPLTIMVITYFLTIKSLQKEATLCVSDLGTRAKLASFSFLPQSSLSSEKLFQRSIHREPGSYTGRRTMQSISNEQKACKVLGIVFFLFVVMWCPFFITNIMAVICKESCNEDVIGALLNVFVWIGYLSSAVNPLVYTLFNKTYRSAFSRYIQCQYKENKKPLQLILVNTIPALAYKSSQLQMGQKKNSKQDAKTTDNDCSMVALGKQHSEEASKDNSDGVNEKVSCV

Take `Cc1c(-c2cnc(N)[nH]2)sc2ccccc12` [Compound 104O, 4-(3-Methyl-benzo[b]thiophen-2-yl)-1H-imidazol-2-ylamine]: the Ki in assay [1] is < 316 nM; in assay [2], > 10000 nM; in assay [3], > 316 nM.

`Nc1nc(-c2cccc(-c3ccccc3)c2)c[nH]1` [Compound 108, 4-biphenyl-3-yl-1H-imidazol-2-ylamine]: the Ki was < 100 nM in assay [1], > 316 nM in assay [2] and > 100 nM in assay [3].

Take `Cc1cc(Oc2cccc3ccccc23)nc(N)n1` [Compound 4B, 4-methyl-6-(naphthalen-1-yloxy)-pyrimidin-2-ylamine]: the Ki in assay [1] was < 100 nM; in assay [2], > 10000 nM; in assay [3], > 10000 nM.

Take `Nc1nccc(Nc2ccc(I)cc2)n1` [Compound 16, N″-(4-Iodo-phenyl)-pyrimidine-2,4-diamine]: the Ki is < 1000 nM in assay [1], > 1000 nM in assay [2] and > 1000 nM in assay [3].

On to `Cc1cc(Nc2cc(Br)ccc2Br)nc(N)n1` [Compound 2AJ, N^4-(2,5-dibromo-phenyl)-6-methyl-pyrimidine-2,4-diamine trifluoroacetic acid], for which the Ki is < 100 nM in assay [1], > 1000 nM in assay [2] and > 316 nM in assay [3].

Turning to `Cc1cc(Nc2ccc(N3CCOCC3)cc2)nc(N)n1` [Compound 2K, 6-methyl-N^4-(4-morpholin-4-yl-phenyl)-pyrimidine-2,4-diamine hydrochloride], the Ki in assay [1] is < 1000 nM; in assay [2], > 10000 nM; in assay [3], > 10000 nM.

For the molecule `Cc1cc(Nc2cccc(I)c2)nc(N)n1` [Compound 2G, N^4-(3-iodo-phenyl)-6-methyl-pyrimidine-2,4-diamine hydrochloride], the Ki in assay [1] is < 100 nM; in assay [2], > 3160 nM; in assay [3], > 316 nM.

For the molecule `Cc1cc(Nc2ccc3ncsc3c2)nc(N)n1` [Compound 2AB, N^4-benzothiazol-6-yl-6-methyl-pyrimidine-2,4-diamine hydrochloride], the Ki in assay [1] is < 1000 nM; in assay [2] it was > 1000 nM; in assay [3], > 1000 nM.

Consider `Cc1cc(Nc2cccc(CO)c2)nc(N)n1` [Compound 2X, [3-(2-amino-6-methyl-pyrimidin-4-ylamino)-phenyl]-methanol hydrochloride], for which the Ki in assay [1] is < 1000 nM; in assay [2], > 1000 nM; in assay [3], > 1000 nM.

For the molecule `CC(=O)Nc1ncc(-c2sc3ccccc3c2C)[nH]1` [Compound 103O, N-[4-(3-Methyl-benzo[b]thiophen-2-yl)-1H-imidazol-2-yl]-acetamide], the figures for the Ki in assay [1], in assay [2] and in assay [3] were < 1000 nM, > 10000 nM and > 10000 nM, respectively.

Take `CC(=O)Nc1ccc(Nc2cc(C)nc(N)n2)cc1` [Compound 2V, N-[4-(2-amino-6-methyl-pyrimidin-4-ylamino)-phenyl]-acetamide hydrochloride]: the values for the Ki in assay [1], in assay [2] and in assay [3] were < 1000 nM, > 1000 nM and > 1000 nM, respectively.

Turning to `COc1ccccc1-c1cccc(-c2nc(N)oc2C)c1` [Compound 218C, 4-(2′-methoxy-biphenyl-3-yl)-5-methyl-oxazol-2-ylamine, trifluoroacetic acid], the Ki in assay [1] was < 316 nM; in assay [2] it was > 1000 nM; in assay [3] it was > 1000 nM.

`COc1ccc(-c2c[nH]c(N)n2)c2ccccc12` [Compound 104B, 4-(4-Methoxy-naphthalen-1-yl)-1H-imidazol-2-ylamine]: the Ki in assay [1] was < 100 nM; in assay [2], > 3160 nM; in assay [3] it was > 3160 nM.

For the molecule `Cn1nc(Nc2ccc(-c3ccccc3)cc2)nc1N` [Compound 411A, N^3-biphenyl-4-yl-1-methyl-1H-[1,2,4]triazole-3,5-diamine trifluoroacetic acid], the Ki is < 1000 nM in assay [1], > 1000 nM in assay [2] and > 1000 nM in assay [3].

In the case of `Cc1cc(Nc2ccc(Cl)c(Cl)c2)nc(N)n1` [Compound 2N, N^4-(3,4-dichloro-phenyl)-6-methyl-pyrimidine-2,4-diamine hydrochloride], the Ki was < 1000 nM in assay [1], > 1000 nM in assay [2] and > 1000 nM in assay [3].

Regarding `Cc1cc(Nc2cccc3c2CCC3)nc(N)n1` [Compound 2R, N^4-indan-4-yl-6-methyl-pyrimidine-2,4-diamine hydrochloride], the figures for the Ki in assay [1], in assay [2] and in assay [3] were < 1000 nM, > 1000 nM and > 1000 nM, respectively.

In the case of `CC(=O)Nc1nc(-c2cccc(-c3ccccc3)c2)c[nH]1` [Compound 107, N-(4-biphenyl-3-yl-1H-imidazol-2-yl)-acetamide], in assay [1], the Ki is < 1000 nM.

As for `Cc1cccc(-c2cccc(-c3nc(N)oc3C)c2)c1` [Compound 218B, 5-Methyl-4-(3′-methyl-biphenyl-3-yl)-oxazol-2-ylamine, trifluoroacetic acid], the Ki in assay [1] was < 1000 nM.

Regarding `Cc1cc(Nc2ccc(C)c(I)c2)nc(N)n1` [Compound 2AK, N^4-(3-iodo-4-methyl-phenyl)-6-methyl-pyrimidine-2,4-diamine trifluoroacetic acid], in assay [1], the Ki is < 100 nM.

Consider `Cc1cc(Nc2cccc(-c3cccc(O)c3)c2)nc(N)n1` [Compound 10G, 3′-(2-amino-6-methyl-pyrimidin-4-ylamino)-biphenyl-3-ol trifluoroacetic acid], for which the Ki in assay [1] is < 100 nM.

As for `CC(C)c1cccc(-c2cccc(-c3cnc(N)o3)c2)c1` [Compound 209M, 5-(3′-Isopropyl-biphenyl-3-yl)-oxazol-2-ylamine, trifluoroacetic acid], the Ki in assay [1] is < 1000 nM.
